From patent US6706663B2, “Herbicidal 3-heterocyclic substituted benzisothiazole and benzisoxazole compounds” (Wyeth, priority 2000, dated 2004)

How the values were obtained:
[1] = test system: ABUTH (Abutilon theophrasti); experiment: Postemergence herbicidal evaluation; type: in vivo, Medic.; conditions: for ABUTH herbicidal rating: postemergence
Method in brief: (§1)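 Seedlings grown about two weeks in flats, sprayed, then kept under standard greenhouse care. Rated visually 4–5 weeks after treatment on a 0–9 scale (stand, vigour, malformation, size, chlorosis, overall appearance) relative to untreated control; repeat tests averaged.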

[2] = test system: AMBEL (Ambrosia artemisifolia); experiment: Postemergence herbicidal evaluation; type: in vivo, L.; conditions: for AMBEL herbicidal rating: postemergence
Method in brief: as §1

[3] = test system: CASOB (Cassia obtusifolia); experiment: Postemergence herbicidal evaluation; type: in vivo, L.; conditions: for CASOB herbicidal rating: postemergence
Method in brief: as §1

[4] = test system: CHEAL (Chenopodium album); experiment: Postemergence herbicidal evaluation; type: in vivo, L.; conditions: for CHEAL herbicidal rating: postemergence
Method in brief: as §1

[5] = test system: IPOHE (Ipomoea hederacea); experiment: Postemergence herbicidal evaluation; type: in vivo, (L.) Jacq.; conditions: for IPOHE herbicidal rating: postemergence
Method in brief: as §1

[6] = test system: GLXMAW (Soybean, Williams); experiment: Postemergence herbicidal evaluation; type: in vivo, Glycine max, (L.) Merr. cv Williams; conditions: for GLXMAW herbicidal rating: postemergence
Method in brief: as §1

ORYSAT (Rice, Tebonnet) = experiment: Postemergence herbicidal evaluation; type: in vivo, Oryza sativa, (L.) Tebonnet; conditions: for ORYSAT herbicidal rating: postemergence
Method in brief: as §1

[7] = test system: ABUTH (Abutilon theophrasti); experiment: Preemergence herbicidal evaluation; type: in vivo, Medic.; conditions: rated 4-5 weeks after treatment
[8] = test system: AMBEL (Ambrosia artemisifolia); experiment: Preemergence herbicidal evaluation; type: in vivo, L.; conditions: rated 4-5 weeks after treatment
Method in brief: (§2)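 Visual 0–9 rating versus control (stand, vigor, malformation, size, chlorosis, overall appearance), scored four to five weeks post-treatment. Preemergence spray of aqueous acetone solution onto freshly seeded soil cups; plants grown under conventional greenhouse care.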

[9] = test system: CASOB (Cassia obtusifolia); experiment: Preemergence herbicidal evaluation; type: in vivo, L.; conditions: rated 4-5 weeks after treatment
Method in brief: as §2

[10] = test system: CHEAL (Chenopodium album); experiment: Preemergence herbicidal evaluation; type: in vivo, L.; conditions: rated 4-5 weeks after treatment
Method in brief: as §2

[11] = test system: IPOHE (Ipomoea hederacea); experiment: Preemergence herbicidal evaluation; type: in vivo, (L.) Jacq.; conditions: rated 4-5 weeks after treatment
[12] = test system: ECHCG (Echinochloa crus-galli); experiment: Preemergence herbicidal evaluation; type: in vivo, (L.) Beau; conditions: rated 4-5 weeks after treatment
Method in brief: as §2

SETVI (Setaria viridis) = experiment: Preemergence herbicidal evaluation; type: in vivo, (L.) Beau; conditions: rated 4-5 weeks after treatment
Method in brief: as §2

[13] = test system: GLXMAW (Soybean, Williams); experiment: Preemergence herbicidal evaluation; type: in vivo, Glycine max, (L.) Merr. cv Williams; conditions: rated 4-5 weeks after treatment
[14] = test system: TRZAWR (Wheat, Winter, cv Riband); experiment: Preemergence herbicidal evaluation; type: in vivo, Triticum aestivum; conditions: rated 4-5 weeks after treatment
Method in brief: as §2

ZEAMX (Corn, Field) = experiment: Preemergence herbicidal evaluation; type: in vivo, Zea mays, L.; conditions: rated 4-5 weeks after treatment
CYPIR (Cyperus iria) = experiment: Flooded paddy, preemergence weed control; type: in vivo; conditions: rate 0.1250 kg/ha, rated 3-4 weeks after treatment, 0-9 rating scale
Method in brief: (§3)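 Flooded silt loam pots, seeds in upper 0.5 cm, water held 1.5–3 cm deep; greenhouse; visual 0-9 score vs control.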

[15] = test system: MOOVA (Monochoria vaginalis); experiment: Flooded paddy, preemergence weed control; type: in vivo, Presl.; conditions: rated 3-4 weeks after treatment, 0-9 rating scale
Method in brief: as §3

Substance: 1-methyl-3-[3-(1,3-oxathian-2-yl)-1,2-benzisothiazol-5-yl]-6-(trifluoromethyl)uracil S′,S′-dioxide [Compound 35]
- ABUTH herbicidal rating ([1]; rate 0.0320 kg/ha): 9.0
- ABUTH herbicidal rating ([1]; rate 0.0620 kg/ha): 9.0
- Postemergence herbicidal rating, ABUTH ([1]; rate 0.0320 kg/ha): 9.0
- Postemergence herbicidal rating, ABUTH ([1]; rate 0.0620 kg/ha): 9.0
- AMBEL herbicidal rating ([2]; rate 0.0320 kg/ha): 4.0
- AMBEL herbicidal rating ([2]; rate 0.0620 kg/ha): 9.0
- Postemergence herbicidal rating, AMBEL ([2]; rate 0.0320 kg/ha): 9.0
- Postemergence herbicidal rating, AMBEL ([2]; rate 0.0620 kg/ha): 9.0
- CASOB herbicidal rating ([3]; rate 0.0320 kg/ha): 4.0
- CASOB herbicidal rating ([3]; rate 0.0620 kg/ha): 4.0
- Postemergence herbicidal rating, CASOB ([3]; rate 0.0320 kg/ha): 9.0
- Postemergence herbicidal rating, CASOB ([3]; rate 0.0620 kg/ha): 9.0
- CHEAL herbicidal rating ([4]; rate 0.0320 kg/ha): 7.0
- CHEAL herbicidal rating ([4]; rate 0.0620 kg/ha): 9.0
- Postemergence herbicidal rating, CHEAL ([4]; rate 0.0320 kg/ha): 9.0
- Postemergence herbicidal rating, CHEAL ([4]; rate 0.0620 kg/ha): 9.0
- IPOHE herbicidal rating ([5]; rate 0.0320 kg/ha): 7.0
- IPOHE herbicidal rating ([5]; rate 0.0620 kg/ha): 9.0
- Postemergence herbicidal rating, IPOHE ([5]; rate 0.0320 kg/ha): 9.0
- Postemergence herbicidal rating, IPOHE ([5]; rate 0.0620 kg/ha): 9.0
- GLXMAW herbicidal rating ([6]; rate 0.0320 kg/ha): 4.0
- GLXMAW herbicidal rating ([6]; rate 0.0620 kg/ha): 5.5
- Postemergence herbicidal rating, GLXMAW ([6]; rate 0.0320 kg/ha): 9.0
- Postemergence herbicidal rating, GLXMAW ([6]; rate 0.0620 kg/ha): 9.0
- ORYSAT herbicidal rating (ORYSAT (Rice, Tebonnet); rate 0.0320 kg/ha): 1.5
- ORYSAT herbicidal rating (ORYSAT (Rice, Tebonnet); rate 0.0620 kg/ha): 2.5
- Postemergence herbicidal rating, ORYSAT (ORYSAT (Rice, Tebonnet); rate 0.0320 kg/ha): 6.5
- Postemergence herbicidal rating, ORYSAT (ORYSAT (Rice, Tebonnet); rate 0.0620 kg/ha): 6.5
- ABUTH preemergence herbicidal rating ([7]; Rate 0.0620 kg/ha): 9.0
- Preemergence herbicidal rating ABUTH ([7]; Rate 0.0620 kg/ha): 4.5
- ABUTH preemergence herbicidal rating ([7]; Rate 0.1250 kg/ha): 9.0
- Preemergence herbicidal rating ABUTH ([7]; Rate 0.1250 kg/ha): 9.0
- ABUTH preemergence herbicidal rating ([7]; Rate 0.2500 kg/ha): 9.0
- Preemergence herbicidal rating ABUTH ([7]; Rate 0.2500 kg/ha): 9.0
- AMBEL preemergence herbicidal rating ([8]; Rate 0.0620 kg/ha): 9.0
- Preemergence herbicidal rating AMBEL ([8]; Rate 0.0620 kg/ha): 3.5
- AMBEL preemergence herbicidal rating ([8]; Rate 0.1250 kg/ha): 9.0
- Preemergence herbicidal rating AMBEL ([8]; Rate 0.1250 kg/ha): 5.5
- AMBEL preemergence herbicidal rating ([8]; Rate 0.2500 kg/ha): 9.0
- Preemergence herbicidal rating AMBEL ([8]; Rate 0.2500 kg/ha): 6.5
- CASOB preemergence herbicidal rating ([9]; Rate 0.0620 kg/ha): 7.0
- Preemergence herbicidal rating CASOB ([9]; Rate 0.0620 kg/ha): 0.0
- CASOB preemergence herbicidal rating ([9]; Rate 0.1250 kg/ha): 7.0
- Preemergence herbicidal rating CASOB ([9]; Rate 0.1250 kg/ha): 1.5
- CASOB preemergence herbicidal rating ([9]; Rate 0.2500 kg/ha): 9.0
- Preemergence herbicidal rating CASOB ([9]; Rate 0.2500 kg/ha): 2.0
- CHEAL preemergence herbicidal rating ([10]; Rate 0.0620 kg/ha): 9.0
- Preemergence herbicidal rating CHEAL ([10]; Rate 0.0620 kg/ha): 9.0
- CHEAL preemergence herbicidal rating ([10]; Rate 0.1250 kg/ha): 9.0
- Preemergence herbicidal rating CHEAL ([10]; Rate 0.1250 kg/ha): 9.0
- CHEAL preemergence herbicidal rating ([10]; Rate 0.2500 kg/ha): 9.0
- Preemergence herbicidal rating CHEAL ([10]; Rate 0.2500 kg/ha): 9.0
- IPOHE preemergence herbicidal rating ([11]; Rate 0.0620 kg/ha): 9.0
- Preemergence herbicidal rating IPOHE ([11]; Rate 0.0620 kg/ha): 0.5
- IPOHE preemergence herbicidal rating ([11]; Rate 0.1250 kg/ha): 9.0
- Preemergence herbicidal rating IPOHE ([11]; Rate 0.1250 kg/ha): 3.0
- IPOHE preemergence herbicidal rating ([11]; Rate 0.2500 kg/ha): 9.0
- Preemergence herbicidal rating IPOHE ([11]; Rate 0.2500 kg/ha): 7.0
- ECHCG preemergence herbicidal rating ([12]; Rate 0.0620 kg/ha): 8.0
- Preemergence herbicidal rating ECHCG ([12]; Rate 0.0620 kg/ha): 3.0
- ECHCG preemergence herbicidal rating ([12]; Rate 0.1250 kg/ha): 9.0
- Preemergence herbicidal rating ECHCG ([12]; Rate 0.1250 kg/ha): 6.0
- ECHCG preemergence herbicidal rating ([12]; Rate 0.2500 kg/ha): 9.0
- Preemergence herbicidal rating ECHCG ([12]; Rate 0.2500 kg/ha): 7.5
- SETVI preemergence herbicidal rating (SETVI (Setaria viridis); Rate 0.0620 kg/ha): 9.0
- Preemergence herbicidal rating SETVI (SETVI (Setaria viridis); Rate 0.0620 kg/ha): 8.0
- SETVI preemergence herbicidal rating (SETVI (Setaria viridis); Rate 0.1250 kg/ha): 9.0
- Preemergence herbicidal rating SETVI (SETVI (Setaria viridis); Rate 0.1250 kg/ha): 9.0
- SETVI preemergence herbicidal rating (SETVI (Setaria viridis); Rate 0.2500 kg/ha): 9.0
- Preemergence herbicidal rating SETVI (SETVI (Setaria viridis); Rate 0.2500 kg/ha): 9.0
- GLXMAW preemergence herbicidal rating ([13]; Rate 0.0620 kg/ha): 8.0
- Preemergence herbicidal rating GLXMAW ([13]; Rate 0.0620 kg/ha): 0.0
- GLXMAW preemergence herbicidal rating ([13]; Rate 0.1250 kg/ha): 9.0
- Preemergence herbicidal rating GLXMAW ([13]; Rate 0.1250 kg/ha): 0.5
- GLXMAW preemergence herbicidal rating ([13]; Rate 0.2500 kg/ha): 9.0
- Preemergence herbicidal rating GLXMAW ([13]; Rate 0.2500 kg/ha): 2.0
- TRZAWR preemergence herbicidal rating ([14]; Rate 0.0620 kg/ha): 7.0
- Preemergence herbicidal rating TRZAWR ([14]; Rate 0.0620 kg/ha): 0.0
- TRZAWR preemergence herbicidal rating ([14]; Rate 0.1250 kg/ha): 9.0
- Preemergence herbicidal rating TRZAWR ([14]; Rate 0.1250 kg/ha): 0.0
- TRZAWR preemergence herbicidal rating ([14]; Rate 0.2500 kg/ha): 9.0
- Preemergence herbicidal rating TRZAWR ([14]; Rate 0.2500 kg/ha): 0.0
- ZEAMX preemergence herbicidal rating (ZEAMX (Corn, Field); Rate 0.0620 kg/ha): 5.5
- Preemergence herbicidal rating ZEAMX (ZEAMX (Corn, Field); Rate 0.0620 kg/ha): 0.0
- ZEAMX preemergence herbicidal rating (ZEAMX (Corn, Field); Rate 0.1250 kg/ha): 9.0
- Preemergence herbicidal rating ZEAMX (ZEAMX (Corn, Field); Rate 0.1250 kg/ha): 1.0
- ZEAMX preemergence herbicidal rating (ZEAMX (Corn, Field); Rate 0.2500 kg/ha): 9.0
- Preemergence herbicidal rating ZEAMX (ZEAMX (Corn, Field); Rate 0.2500 kg/ha): 2.5
- herbicidal rating, CYPIR (CYPIR (Cyperus iria)): 9.0
- herbicidal rating, MOOVA ([15]; rate 0.0080 kg/ha): 0.0
- herbicidal rating, MOOVA ([15]; rate 0.0080 kg/ha, listed as 82): 8.5
- herbicidal rating, MOOVA ([15]; rate 0.0320 kg/ha): 5.0
- herbicidal rating, MOOVA ([15]; rate 0.0320 kg/ha, listed as 82): 9.0
- herbicidal rating, MOOVA ([15]; rate 0.1250 kg/ha): 9.0
